Assay results from PMC6591635, “Advancing the Therapeutic Potential of Indoleamides for Tuberculosis” (Antimicrobial Agents and Chemotherapy, 2019).
In brackets after ≈: the same amount, converted by molar mass. Several values for one entry are separate records, joined by “and”; a condition that tells them apart may be missing. Equal entries are not always repeated. Where two headings read alike, the source gives them in different places. Marks after values point to notes of the source that are not given here.

Key:
[1] = system: M. tuberculosis H37Rv; experiment: Field emission scanning electron microscopy of cell morphology (dimples per 100 bacilli); assay type: cell-based, Mycobacterium tuberculosis; details: 24 hours of treatment, FESEM; for Cell morphology (dimples per 100 cells, deformed bacilli): 10× MIC
[2] = in vitro; details: mouse, plasma
[3] = system: M. tuberculosis H37Rv; experiment: animal or person; assay type: in vivo, Mycobacterium tuberculosis; details: for Lung CFU burden compared with untreated controls: 10 mg/kg, 4 weeks of treatment, P < 0.05; for ED50: Mycobacterium tuberculosis, H37RV, in Mus musculus, inhaled or nasal, 672 h, read-out: 50% effective dose (ED50)
[4] = Single dose pharmacokinetic study in mice (oral formulations, i.v.); assay type: in vivo, Swiss Webster mice; details: mouse
Procedure: To enhance oral bioavailability, we developed a novel formulation for compound 2 in propylene glycol (PG):Tween 80 (4:1, vol/vol). We compared the bioavailability of this new formulation with a previously reported formulation using 0.5% (wt/vol) carboxymethyl cellulose (CMC) ([19]). For oral (p.o.) administration, compound 2 was prepared in either formulation at 1 mg/ml of homogeneous suspension to achieve a 10-mg/kg dose level. For intravenous (i.v.) injection, a 0.22-mg/ml solution of compound 2 in PG:Tween 80:5% glucose at 20:10:70 (vol/vol/vol) was used. Five-week-old male Swiss Webster mice were randomly assigned to time points (3 mice per arm per time point). Serial blood samples of approximately 30 μl were collected at 0.25, 0.5, 1, 2, 4, 8, and 24 h after a single p.o. dose; and at 0.083, 0.33, 1, 2, 4, 8, and 24 h after a single i.v. dose. Plasma was harvested and stored at −80°C until analysis. Plasma samples were analyzed for compound 2 using liquid chromatography-tandem mass spectrometry (LC-MS/MS), with a limit of quantification of 1.05 ng/ml. Estimation of pharmacokinetic parameters was conducted using noncompartmental analysis with WinNonlin software (Phoenix 6.3).

[5] = system: M. tuberculosis H37Rv; design: method as in PMID 27275668; details: 4 weeks of treatment, 0.5% (wt/vol) CMC formulation, previous study; cited from earlier work
[6] = system: M. tuberculosis H37Rv; details: M. tuberculosis; stated without method in this paper; cited from earlier work
[7] = system: M. tuberculosis H37Rv; assay type: in vivo, Mycobacterium tuberculosis
[8] = male, Swiss Webster, in vivo, po, 10 mg/kg
[9] = 50 mg/kg, 4 weeks of treatment, PG:Tween 80 formulation

Structure (SMILES): Cc1cc(C)c2cc(C(=O)NC3CCCCCCC3)[nH]c2c1 [compound 1]
- Cell morphology (unhealthy cells: dimples at poles and septum, wrinkled cell surface) versus untreated ([1]; 1× and 10× MIC): significantly higher number of unhealthy cells
- Cell morphology (dimples per 100 cells, deformed bacilli) [1]: higher rate of deformed bacilli than 1× MIC

Structure (SMILES): C[C@@H]1[C@H]2C[C@@H](C[C@H]1NC(=O)c1cc3c(F)cc(F)cc3[nH]1)C2(C)C [compound 2]
- fraction unbound [2]: 0.032
- Lung CFU burden compared with untreated controls [3]: significantly reduced the lung CFU burden
- ED50 [3]: 28.9 mg/kg
- F (relative bioavailability) ([4]; 10 mg/kg p.o., PG:Tween 80 formulation (suspension)): 96%
- F ([4]; Swiss Webster, in vivo): 22%
- F (relative bioavailability) ([4]; male, Swiss Webster, in vivo): 22%
- Time for which plasma concentration of free compound exceeded the MIC postdose ([4]; male, Swiss Webster, in vivo): 24 h
- Increase in relative bioavailability compared with the CMC formulation [4, 8]: 74%
- Tmax [4, 8]: 1.00 ± 0.00 h
- Tmax ([4]; male, Swiss Webster, in vivo, po, 10 mg/kg, Tmax): 1.25 ± 1.06 h
- Lung CFU counts higher than positive control ethambutol at 100 mg/kg [5]: 2.0 log
- MIC [6]: 4 ng/mL (≈ 0.012 µM)
- Lung CFU count lower than that of positive control ethambutol at 100 mg/kg [7, 9]: 1.2 log
- Mean lung CFU count lower than that of untreated controls [7, 9]: 4.66 log
- Lung CFU counts, Week 2 ([7]; […], compound 2 in PG:Tween 80): 3.40 (NA)^b^,^c
- Lung CFU counts, Week 4 ([7]; […], compound 2 in PG:Tween 80): 2.82 (0.34)^b

Structure (SMILES): CC1(C)CCC(NC(=O)c2cc3c(Cl)cc(Cl)cc3[nH]2)CC1 [compound 3]
- Lung CFU burden compared with untreated controls [3]: did not
- ED50 [3]: 43 mg/kg
- Lung CFU, D28 ([3]; in vivo): 7.05±0.09 and 6.99±0.19 and 5.66±0.14 and 4.15±0.06 and 3.65±0.11

Structure (SMILES): CC[C@@H](CO)NCCN[C@@H](CC)CO [ethambutol, reference compound]
- Lung CFU counts, Week 2 ([7]; […], compound 2 in PG:Tween 80): 4.34 (0.25)^b
- Lung CFU counts, Week 4 ([7]; […], compound 2 in PG:Tween 80): 5.60 (0.24)^b
- Lung CFU counts, Week 2 ([7]; in vivo): 3.56 (0.26)^b
- Lung CFU counts, Week 4 ([7]; in vivo): 4.02 (0.28)^b

Structure (SMILES): NNC(=O)c1ccncc1 [isoniazid, reference compound]
- Cell morphology (dimples per 100 cells, deformed bacilli) [1]: more dimples per 100 cells than no treatment, but the difference did not reach statistical significance
